According to paper PMC11721541 (Journal of Lipid Research, 2024):

Assays:
[1] = system: WT S. cerevisiae cells (RS453); test: Lipid analysis ([2-14C]acetate labeling, TLC) in S. cerevisiae; conditions: 163 μM, 12 h, SC-0.2% glucose
Description: Lipids were extracted ([97]) from ∼ 8 × 10^7 cells and analyzed by one-dimensional TLC with silica gel 60 plates using the solvent system containing hexane/diethyl ether/glacial acetic acid (40:10:1, v/v) ([98]). Radiolabeled lipids were visualized by phosphorimaging with a Storm 860 Molecular Imager (GE Healthcare) and quantified with ImageQuant software using a standard curve of [2–^14C]acetate. The amounts of TAG and phospholipids were normalized to total lipids on TLC plates.
The radiolabeling was performed in the SC medium owing to the difficulty of [2–^14C]acetate incorporation into cells grown in the RPMI medium.

human lipin 1γ = target: T1, human lipin 1γ (Homo sapiens, UniProt Q14693); test: PAP assay, human lipin 1γ; assay type: biochemical; conditions: unphosphorylated, from E. coli; PA 2.4 mol %
T1 construct: His6 (C); made in house; host or cells: E. coli Rosetta2(DE3)pLysS, plasmid pGH321 (pET-28b(+) derivative)
T1 sequence (Q14693 1-916 isoform Q14693-4): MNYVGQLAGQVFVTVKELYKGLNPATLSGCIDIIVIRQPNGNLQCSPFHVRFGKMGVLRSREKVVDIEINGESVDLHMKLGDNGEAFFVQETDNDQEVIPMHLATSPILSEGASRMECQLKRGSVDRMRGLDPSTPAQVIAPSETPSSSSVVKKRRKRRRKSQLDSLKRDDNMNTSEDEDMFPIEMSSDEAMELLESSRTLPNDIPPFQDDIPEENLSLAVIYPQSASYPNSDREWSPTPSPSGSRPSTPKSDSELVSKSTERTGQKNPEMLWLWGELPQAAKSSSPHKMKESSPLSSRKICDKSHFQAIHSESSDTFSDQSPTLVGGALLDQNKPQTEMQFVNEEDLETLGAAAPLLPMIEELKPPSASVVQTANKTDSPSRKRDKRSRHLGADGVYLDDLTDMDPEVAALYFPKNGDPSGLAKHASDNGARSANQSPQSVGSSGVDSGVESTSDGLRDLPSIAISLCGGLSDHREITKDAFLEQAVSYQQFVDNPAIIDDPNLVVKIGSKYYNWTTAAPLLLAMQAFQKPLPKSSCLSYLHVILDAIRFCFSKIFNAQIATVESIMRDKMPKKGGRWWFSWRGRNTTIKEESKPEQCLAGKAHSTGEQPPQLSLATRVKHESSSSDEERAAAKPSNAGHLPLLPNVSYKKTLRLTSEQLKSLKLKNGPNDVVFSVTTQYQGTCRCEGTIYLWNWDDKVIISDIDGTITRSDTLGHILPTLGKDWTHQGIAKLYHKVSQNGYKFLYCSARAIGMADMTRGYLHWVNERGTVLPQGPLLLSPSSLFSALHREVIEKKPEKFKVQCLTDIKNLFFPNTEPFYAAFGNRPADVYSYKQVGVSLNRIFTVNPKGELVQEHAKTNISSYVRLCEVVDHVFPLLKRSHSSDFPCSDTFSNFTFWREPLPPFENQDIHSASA
Protocol: (§1) PA dissolved in chloroform was dried in vacuo for 1 h. The dried PA was suspended in Triton X-100 to prepare Triton X-100/PA-mixed micelles ([88]). The mole percent of PA in the Triton X-100/PA-mixed micelle was calculated using the following formula: mol %PA = 100 × [PA (molar)]/([PA (molar)] + [Triton X-100 (molar)]). The total PA concentration in the Triton X-100/PA-mixed micelles was kept below 15 mol% to ensure that the structure of the PA-mixed micelles was similar to that of pure Triton X-100 micelles ([89], [90]).
(§2) PAP activity was measured at 30°C for 20 min by following the release of water-soluble ^32Pi from chloroform-soluble [^32P]PA (5,000–10,000 cpm/nmol) ([1], [88]). [^32P]PA was enzymatically synthesized from 1, 2-dioleoyl DAG and [γ-^32P]ATP with E. coli DAG kinase ([88]). Pah1-CC PAP activity was measured by following the formation of Pi from unlabeled PA using the malachite green-molybdate reagent ([4], [91]). The reaction mixture in a total volume of 100 μl contained 50 mM Tris-HCl (pH 7.5), 1 mM MgCl2, 10 mM 2-mercaptoethanol, 0.2 mM PA, 2 mM Triton X-100, and 50 ng purified enzyme. The enzyme assays were conducted in triplicate; the reactions were linear with time and protein concentration.
(§3) Each of the isoforms was heterologously expressed in E. coli, which allowed for their isolation in the unphosphorylated state ([4]).

human lipin 1β = target: T2, human lipin 1β (Homo sapiens, UniProt Q14693); test: PAP assay, human lipin 1β; assay type: biochemical; conditions: unphosphorylated, from E. coli; PA 2.4 mol %
T2 construct: His6 (C); made in house; host or cells: E. coli Rosetta2(DE3)pLysS, plasmid pGH327 (pET-28b(+) derivative)
T2 sequence (Q14693 1-926 isoform Q14693-3): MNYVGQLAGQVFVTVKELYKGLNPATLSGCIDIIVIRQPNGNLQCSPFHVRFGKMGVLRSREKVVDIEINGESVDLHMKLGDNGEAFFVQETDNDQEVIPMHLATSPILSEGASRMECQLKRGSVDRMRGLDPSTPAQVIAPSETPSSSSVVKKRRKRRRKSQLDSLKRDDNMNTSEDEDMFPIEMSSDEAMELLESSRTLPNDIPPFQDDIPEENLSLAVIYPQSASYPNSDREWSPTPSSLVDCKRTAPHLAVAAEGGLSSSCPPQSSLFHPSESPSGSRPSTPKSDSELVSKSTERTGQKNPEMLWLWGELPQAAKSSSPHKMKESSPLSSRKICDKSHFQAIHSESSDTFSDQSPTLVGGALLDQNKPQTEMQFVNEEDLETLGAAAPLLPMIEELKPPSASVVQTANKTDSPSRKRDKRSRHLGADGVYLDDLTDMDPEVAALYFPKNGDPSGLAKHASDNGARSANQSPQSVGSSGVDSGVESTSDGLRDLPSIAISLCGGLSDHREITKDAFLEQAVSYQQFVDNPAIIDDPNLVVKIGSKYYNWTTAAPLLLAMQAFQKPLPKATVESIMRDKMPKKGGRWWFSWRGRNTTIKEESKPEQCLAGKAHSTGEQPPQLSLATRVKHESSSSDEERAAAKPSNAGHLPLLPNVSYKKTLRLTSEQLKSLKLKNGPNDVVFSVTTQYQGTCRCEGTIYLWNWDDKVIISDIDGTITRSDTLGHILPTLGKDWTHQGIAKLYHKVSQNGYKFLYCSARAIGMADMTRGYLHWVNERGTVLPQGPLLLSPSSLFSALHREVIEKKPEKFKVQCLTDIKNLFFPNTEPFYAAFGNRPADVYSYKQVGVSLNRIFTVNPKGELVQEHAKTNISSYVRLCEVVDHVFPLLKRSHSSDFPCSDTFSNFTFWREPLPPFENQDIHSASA
Protocol: as §1, §2, §3

HepG2 cells = test: Lipid analysis (TLC, charring) in HepG2 cells; assay type: cell-based, human; conditions: 10 μM, 18 h
human lipin 1α = target: T3, human lipin 1α (Homo sapiens, UniProt Q14693); test: PAP assay, human lipin 1α; assay type: biochemical; conditions: for IC50: unphosphorylated, from E. coli, PA 2.4 mol %
T3 construct: His6 (C); made in house; host or cells: E. coli Rosetta2(DE3)pLysS, plasmid pGH322 (pET-28b(+) derivative)
T3 sequence (Q14693 1-890): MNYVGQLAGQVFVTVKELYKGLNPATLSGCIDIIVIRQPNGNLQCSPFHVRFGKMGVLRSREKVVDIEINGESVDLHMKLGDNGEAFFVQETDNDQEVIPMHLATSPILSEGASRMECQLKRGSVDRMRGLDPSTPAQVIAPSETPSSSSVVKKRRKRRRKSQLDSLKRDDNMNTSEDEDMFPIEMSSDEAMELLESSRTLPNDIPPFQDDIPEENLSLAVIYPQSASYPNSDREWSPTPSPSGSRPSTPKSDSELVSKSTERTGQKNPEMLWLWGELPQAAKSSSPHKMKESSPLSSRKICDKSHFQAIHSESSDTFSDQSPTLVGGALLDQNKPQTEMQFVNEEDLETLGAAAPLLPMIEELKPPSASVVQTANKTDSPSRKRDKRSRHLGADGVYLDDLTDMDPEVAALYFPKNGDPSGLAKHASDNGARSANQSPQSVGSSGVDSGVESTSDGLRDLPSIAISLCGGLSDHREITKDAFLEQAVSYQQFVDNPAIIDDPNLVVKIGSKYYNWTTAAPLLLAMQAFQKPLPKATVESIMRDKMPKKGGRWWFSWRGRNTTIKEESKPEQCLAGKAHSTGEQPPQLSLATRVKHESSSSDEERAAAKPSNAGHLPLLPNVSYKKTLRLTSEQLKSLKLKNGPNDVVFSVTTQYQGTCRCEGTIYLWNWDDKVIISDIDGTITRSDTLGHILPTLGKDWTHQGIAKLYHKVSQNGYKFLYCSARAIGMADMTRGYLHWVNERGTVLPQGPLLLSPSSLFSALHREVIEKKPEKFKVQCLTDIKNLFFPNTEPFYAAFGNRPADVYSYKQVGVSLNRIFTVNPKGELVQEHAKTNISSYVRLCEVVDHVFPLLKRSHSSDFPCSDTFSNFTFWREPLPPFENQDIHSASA
Protocol: as §1, §2, §3

[2] = system: pah1Δ cells (SS1026) overexpressing Pah1 or Pah1-CC; assay type: cell-based, Saccharomyces cerevisiae
Protocol: (§4) The cell density was determined by measurement of A600 nm after a 48-h static incubation using a SpectraMax M2e microplate reader (Molecular Devices). […] The A600 nm readings were taken after 4 days of incubation.

pah1Δ mutant cells = assay type: cell-based, Saccharomyces cerevisiae
Protocol: as §4
For this experiment, we cultured the mutant in SC-0.2% glucose medium because of its growth defect in RPMI-0.2% glucose.
We reasoned that an overexpressed level of PAP activity would more readily rescue the inhibitory effect of the drug on the mutant growth.

| Compound | decrease of TAG content [1] [fold] | increase of phospholipid content [1] [fold] | IC50 (human lipin 1γ) [µM] | IC50 (human lipin 1β) [µM] | reduction in the TAG level (HepG2 cells) [fold] | growth of cells during the incubation period (HepG2 cells; vs DMSO vehicle) | IC50 values for lipin 1 isoforms lower than those of propranolol (human lipin 1α; lipin 1 α, β and γ isoforms together) [fold] | IC50 (human lipin 1α) [µM] | effect on growth of cells expressing Pah1 [2] | effect on growth of pah1Δ mutant (pah1Δ mutant cells) |
| --- | --- | --- | --- | --- | --- | --- | --- | --- | --- | --- |
| CN[C@H]1CC[C@@H](c2ccc(Cl)c(Cl)c2)c2ccccc21 [sertraline] | 2.2 | 1.2 | 143 | 108 | 2 | did not differ from that of the control | ~2 | 103 | mild inhibition | severe reduction in growth |
| CC(C)NCC(O)COc1cccc2ccccc12 (stereo not shown) [propranolol] |  |  | 227 | 271 |  |  |  | 226 |  |  |
